Experimental data as given in patent US20070021391A1, “Preventive/remedy for urinary disturbance” (priority 2003, published 2007).
Entries after “also recorded” stand apart in the source; their conditions may differ. Read-outs that look alike come from different tables or passages of the source.

Legend:
[1] = biological target: T1, acetylcholine esterase of human erythrocyte origin (Homo sapiens, UniProt P22303); assay: biochemical; format: biochemical
T1 construct: acetylcholine esterase of human erythrocyte origin; purchased Sigma, St. Louis, Mo., USA; host or cells: human erythrocytes
Experimental: The AChE inhibitory activity and the BuChE inhibitory activity were determined by a thiocholine method (Ellman method) using acetylcholine esterase of human erythrocyte origin (Sigma, St. Louis, Mo., USA) and butyrylcholine esterase of human serum origin (Biogenesis, Poole, UK). Acetylcholine esterase or butyrylcholine esterase was diluted to a concentration of 0.2 IU/mL with 80 mM tris-HCL buffers (pH=7.4) containing 0.3% bovine serum albumin (BSA) to prepare an enzyme preparation. […] The stock solution was diluted at 3-fold common ratio with 10% DMSO and 80 mM tris-HCl buffers containing 0.3% BSA. On a 96 wells microplate, 20 μL of the drug solution with a given concentration, 30 μL of 80 mM tris-HCl buffers containing 0.3% BSA and 50 μL of the enzyme preparation were distributed, and incubated at room temperature for 1 hour after shaking for 10 seconds. […] For the respective drugs, the test was repeated twice. The % of control of the increase in light absorption was calculated at each concentration with respect to the respective drugs. % of control=increase in light absorption of drug/increase in light absorption of control×100

[2] = biological target: T2, butyrylcholine esterase of human serum origin (Homo sapiens, UniProt P06276); assay: biochemical; format: biochemical
T2 construct: butyrylcholine esterase of human serum origin; purchased Biogenesis, Poole, UK; host or cells: human serum

bladder muscle = system: bladder muscle; set-up: species or system guinea pig
[3] = system: Hartley male guinea pig, urethane anesthesia; assay: Pressure/flow study using guinea pig (Example 3); format: in vivo; details: for Amount of urination, proportion for value before administration (%) / At maximum urine flow rate Inner pressure of bladder, proportion for value before administration (%) / Maximum urine flow rate, proportion for value before administration (%): i.v.; for Bladder compliance, proportion for value before administration (%) / Bladder volume, proportion for value before administration (%): iv
Experimental: A Hartley male guinea pig of 5 weeks old (Japan SLC) was used. After urethane anesthesia, the medial incision of the lower abdomen was carried out, and the bladder was exposed. Two injection needles (20G) with which a polyethylene tube (PE-100) was linked were inserted in the bladder, and one needle was used for injection of saline and another needle was used for measurement of the inner pressure of the bladder. The injection of saline was continuously carried out at a rate of 18 mL/h using a syringe pump (SP-100S, JMS, and Hiroshima), the injection was stopped after intermittent urination was confirmed 3 times at minimum, and the saline in the bladder was removed by suction. Injection was started again, and the injection was stopped when the raise of the inner pressure of the bladder just before urination was confirmed. The amount of urine excreted was measured by an electronic weighing machine (HX-400, A&D, and Tokyo) and the inner pressure of the bladder was measured using a pressure transducer (AP641G, NIPPON KODEN Corporation). The analogue data of the weight of urine and the inner pressure of the bladder were inputted in a multi-channel data analyzer (MP-100A-CE, Biopac systems), and analyzed by a proprietary software (Acqknowledge, Biopac systems). The sampling interval of data was 0.1 second and a low pass filter was applied to the data of discharge amount and urine flow rate at 0.5 Hz in order to remove noise. A delay time of 0.1 second in weighing the urine was rectified, and the urine flow rate was determined by differentiating the value of discharge amount. After a value before twice administration of the drug was measured, the drugs (the compound A, distigmine, neostigigmine and bethanechol) were intravenously administrated. Saline in the bladder was extracted after 10 minutes of administration of the compound A, bethanechol and neostigigmine and after 30 minutes of administration of distigmine, and injection was started again to measure data. The drugs were dissolved with distilled water so that administration volume was 0.5 mL/kg. Parameters (bladder volume, the amount of urination, the maximum urine flow rate, the inner pressure of the bladder at the maximum urine flow, bladder compliance) below were measured. The bladder compliance was calculated from intersection point (the threshold of bladder volume, threshold pressure) which was obtained by determining regression line in the respective curves of the inner pressure of the bladder at collection of urine and urinary reflex. The change rate before and after administration of the drug was calculated for the respective parameters and the calibration of significant difference was carried out by a solvent administration group and Dunnett calibration (Table 6 and Table 7).

male SD rat = assay: Acetylcholine inductive salivation in rat (Example 5); format: in vivo; details: for Amount of saliva secreted: rat
Experimental: (§1) A male SD rat (CLEA Japan Inc.) with a body weight of about 400 g or a Hartley male guinea pig with a body weight of 400 to 500 g (Japan SLC) were used. After urethane anesthesia, sanitary cotton preliminarily weighed was inserted in the mouth of the animal and acetylcholine was intravenously administrated. After 5 minutes, the sanitary cotton was taken out to be weighed and the amount of saliva secreted was measured. The drug was intravenously administrated at 10 min before the administration of acetylcholine. The effect of oxybutynin was analyzed by paired t calibration and the concomitant use effect of the compound A was analyzed by William calibration.

Hartley male guinea pig = assay: Acetylcholine inductive salivation in guinea pig (Example 5); format: in vivo
Experimental: as §1

[4] = system: Hartley male guinea pig, urethane anesthesia; assay: Urine flow dynamic parameters with oxybutynin and compound A (Example 6); format: in vivo; details: for Bladder volume, proportion for value before administration (%) / Maximum urine flow rate, proportion for value before administration (%) / Urination efficiency, proportion for value before administration (%): iv + oxybutynin 1 mg/kg, iv
Experimental: A Hartley male guinea pig with a body weight of about 500 g (Japan SLC Hamamatsu) was used. After urethane anesthesia (1.4 g/kg, i.p.), the medial incision of the lower abdomen was carried out, and the bladder was exposed. Two injection needles (20G) with which a polyethylene tube (PE-100, Becton Dickinson, Franklin Lakes, N.J., USA) was linked were inserted in the bladder, and one needle was used for injection of saline and another needle was used for measurement of the inner pressure of the bladder. Further, a cannula (PE-10, Becton Dickinson) for injection of phenylephrine was inserted in right common jugular vein. […] The amount of urine eliminated was measured by an electronic weighing machine (GX-400, A&D, Tokyo) and the inner pressure of the bladder was measured using a pressure transducer (AP641G, NIPPON KODEN Corporation, Tokyo). The analogue data of the weight of urine and the inner pressure of the bladder were inputted in a multi-channel data analyzer (MP-100A-CE, Biopac systems), and analyzed by a proprietary software (Acqknowledge 3.7.1, Biopac systems). The sampling interval of data was 0.1 sec and a low pass filter was applied to the data of discharge amount and urine flow rate at 0.5 Hz in order to remove noise. A delay time of 0.1 sec in weighing the urine was rectified, and the urine flow rate was determined by differentiating the value of discharge amount. The dynamic state parameter of the flow of urine below was measured. A bladder volume, the maximum urine flow rate, urination efficiency (=amount of urination/bladder volume). The effect of oxybutynin was analyzed by the paired t calibration and the concomitant use effect of the compound A was analyzed by Dunnett calibration.

Butyrylcholine esterase = Butyrylcholine esterase (Rattus norvegicus, UniProt Q9JKC1); details: cited from earlier work
Sequence of Butyrylcholine esterase (Q9JKC1 24-597): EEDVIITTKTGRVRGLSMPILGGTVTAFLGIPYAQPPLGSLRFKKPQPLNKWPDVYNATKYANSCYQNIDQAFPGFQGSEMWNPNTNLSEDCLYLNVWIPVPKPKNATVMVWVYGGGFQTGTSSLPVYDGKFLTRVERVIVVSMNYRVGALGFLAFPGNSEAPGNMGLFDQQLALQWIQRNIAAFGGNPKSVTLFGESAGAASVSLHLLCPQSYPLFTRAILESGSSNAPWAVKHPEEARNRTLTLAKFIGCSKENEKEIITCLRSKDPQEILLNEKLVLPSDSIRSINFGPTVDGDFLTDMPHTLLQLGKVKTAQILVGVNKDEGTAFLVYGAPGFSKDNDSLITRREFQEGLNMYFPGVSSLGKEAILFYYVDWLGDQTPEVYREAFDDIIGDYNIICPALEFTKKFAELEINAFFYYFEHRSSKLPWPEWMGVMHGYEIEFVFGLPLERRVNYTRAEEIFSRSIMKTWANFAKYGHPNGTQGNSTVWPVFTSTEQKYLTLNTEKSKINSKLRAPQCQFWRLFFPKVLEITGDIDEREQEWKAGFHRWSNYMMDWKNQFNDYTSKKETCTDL

T1 sequence (P22303 32-617 isoform P22303-2 limits assumed): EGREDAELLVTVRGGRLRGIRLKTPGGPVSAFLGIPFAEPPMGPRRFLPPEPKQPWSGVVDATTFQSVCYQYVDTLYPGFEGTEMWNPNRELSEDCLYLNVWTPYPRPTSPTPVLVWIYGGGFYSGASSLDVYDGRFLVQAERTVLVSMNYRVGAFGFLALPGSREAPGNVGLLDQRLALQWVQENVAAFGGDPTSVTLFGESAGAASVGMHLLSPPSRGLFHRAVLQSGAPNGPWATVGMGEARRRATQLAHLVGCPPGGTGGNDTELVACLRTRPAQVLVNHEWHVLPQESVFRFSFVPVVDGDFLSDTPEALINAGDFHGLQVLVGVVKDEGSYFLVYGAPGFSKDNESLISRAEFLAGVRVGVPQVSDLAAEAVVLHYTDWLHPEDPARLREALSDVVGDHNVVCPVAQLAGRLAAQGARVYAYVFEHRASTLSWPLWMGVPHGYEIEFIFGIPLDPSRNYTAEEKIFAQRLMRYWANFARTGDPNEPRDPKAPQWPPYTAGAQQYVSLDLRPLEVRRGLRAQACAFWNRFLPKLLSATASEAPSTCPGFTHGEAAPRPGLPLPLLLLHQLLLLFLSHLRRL
T2 sequence (P06276 29-602): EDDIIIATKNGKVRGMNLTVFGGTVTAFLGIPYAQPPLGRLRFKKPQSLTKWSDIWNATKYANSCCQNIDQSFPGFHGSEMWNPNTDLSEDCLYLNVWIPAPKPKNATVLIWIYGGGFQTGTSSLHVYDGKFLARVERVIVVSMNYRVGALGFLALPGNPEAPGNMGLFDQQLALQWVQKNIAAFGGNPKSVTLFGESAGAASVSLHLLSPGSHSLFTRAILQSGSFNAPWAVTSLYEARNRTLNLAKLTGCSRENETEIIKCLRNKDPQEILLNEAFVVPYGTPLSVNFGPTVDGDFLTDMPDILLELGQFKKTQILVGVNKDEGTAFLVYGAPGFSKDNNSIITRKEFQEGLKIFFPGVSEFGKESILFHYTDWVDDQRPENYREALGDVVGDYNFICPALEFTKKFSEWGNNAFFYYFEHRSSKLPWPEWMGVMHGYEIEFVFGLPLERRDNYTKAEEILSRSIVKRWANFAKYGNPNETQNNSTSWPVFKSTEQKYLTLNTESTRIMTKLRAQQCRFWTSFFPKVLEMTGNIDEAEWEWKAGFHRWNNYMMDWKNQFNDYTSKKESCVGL

O=C(CCC1CCN(Cc2cccc(F)c2)CC1)c1cc2c3c(c1)CCN3C(=O)CC2 [Compound A, 8-[3-[1-[(3-fluorophenyl)methyl]-4-piperidinyl]-1-oxopropyl]-1,2,5,6-tetrahydro-4H-pyrrolo[3,2,1-ij]quinolin-4-one]
Acetylcholine esterase selective inhibitory activity [1]: ≥ 6700 fold | inhibition of the activity of human acetylcholine esterase [1]: inhibited the activity of human acetylcholine esterase | Selectivity b/a ([1]; BuChE IC50/AChE IC50 (Table 2)): >6700 | IC50 ([1]; mean value of twice tests, read-out: Acetylcholine esterase IC50): 1.5 nM | inhibitory activity for human butyrylcholine esterase [2]: did not show inhibitory activity for human butyrylcholine esterase up to 10^−5 M | IC50 ([2]; mean value of twice tests, read-out: Butyrylcholine esterase IC50): > 10000 nM | Tension (%) (bladder muscle; 0.003 μM, 30 minutes, change of basic tension, 100 mM KCl contraction = 100%): −0.55 ± 0.60% | Tension (%) (bladder muscle; 0.01 μM, 30 minutes, change of basic tension, 100 mM KCl contraction = 100%): −0.26 ± 0.38% | Tension (%) (bladder muscle; 0.03 μM, 30 minutes, change of basic tension, 100 mM KCl contraction = 100%): 0.13 ± 0.80% | Tension (%) (bladder muscle; 0.1 μM, 30 minutes, change of basic tension, 100 mM KCl contraction = 100%): −0.74 ± 0.60% | Tension (%) (bladder muscle; Table 5: Compound A 0.1 μM with iso-OMPA 10 μM): 1.96 ± 0.87 % | Tension (%) (bladder muscle; Table 5: Compound A 0.1 μM with iso-OMPA 100 μM): 5.43 ± 1.17 % | Tension (%) (bladder muscle; Table 5: Compound A 0.1 μM, iso-OMPA 0 μM): −0.47 ± 0.17% | effect on basic tension (bladder muscle; compound A used in combination with iso-OMPA): significant increase in the basic tension was confirmed | effect on basic tension (bladder muscle; drug alone): did not influence the basic tension | Amount of urination, proportion for value before administration (%) ([3]; 0.003 mg/kg): 150.2 ± 10.0 % | At maximum urine flow rate Inner pressure of bladder, proportion for value before administration (%) ([3]; 0.003 mg/kg): 117.5 ± 6.2% | Maximum urine flow rate, proportion for value before administration (%) ([3]; 0.003 mg/kg): 112.1 ± 9.7 % | Bladder compliance, proportion for value before administration (%) ([3]; 0.003 mg/kg): 75.2 ± 4.8% | Bladder volume, proportion for value before administration (%) ([3]; 0.003 mg/kg): 94.6 ± 5.8% | Amount of urination, proportion for value before administration (%) ([3]; 0.01 mg/kg): 165.2 ± 18.2 % | At maximum urine flow rate Inner pressure of bladder, proportion for value before administration (%) ([3]; 0.01 mg/kg): 110.9 ± 6.0% | Maximum urine flow rate, proportion for value before administration (%) ([3]; 0.01 mg/kg): 124.4 ± 10.3 % | Bladder compliance, proportion for value before administration (%) ([3]; 0.01 mg/kg): 82.6 ± 2.6% | Bladder volume, proportion for value before administration (%) ([3]; 0.01 mg/kg): 101.7 ± 5.0% | Amount of urination, proportion for value before administration (%) ([3]; 0.03 mg/kg): 164.0 ± 13.4 % | At maximum urine flow rate Inner pressure of bladder, proportion for value before administration (%) ([3]; 0.03 mg/kg): 116.9 ± 8.4% | Maximum urine flow rate, proportion for value before administration (%) ([3]; 0.03 mg/kg): 133.5 ± 15.3 % | Bladder compliance, proportion for value before administration (%) ([3]; 0.03 mg/kg): 95.9 ± 18.0% | Bladder volume, proportion for value before administration (%) ([3]; 0.03 mg/kg): 117.2 ± 9.0 % | change of the parameters at urination and at collection of urine (text) ([3]; intravenous administration): increased significantly the amount of urination and the maximum urine flow rate at 0.003 mg/kg or more; also recorded: the increase of the bladder volume was confirmed at 0.03 mg/kg, and did not influence the bladder compliance | action on acetylcholine-induced secretion of saliva (male SD rat; rat and guinea pig (Tables 9 and 10)): significantly antagonized | Amount of saliva secreted (male SD rat; Compound A 0.001 mg/kg + oxybutynin 0.1 mg/kg + acetylcholine 1 mg/kg): 0.22 ± 0.02 g | Amount of saliva secreted (male SD rat; Compound A 0.003 mg/kg + oxybutynin 0.1 mg/kg + acetylcholine 1 mg/kg): 0.26 ± 0.02 g | Amount of saliva secreted (male SD rat; Compound A 0.01 mg/kg + oxybutynin 0.1 mg/kg + acetylcholine 1 mg/kg): 0.49 ± 0.03 g | Amount of saliva secreted (Hartley male guinea pig; Compound A 0.003 mg/kg + oxybutynin 1 mg/kg + acetylcholine 1 mg/kg): 0.17 ± 0.03 g | Amount of saliva secreted (Hartley male guinea pig; Compound A 0.010 mg/kg + oxybutynin 1 mg/kg + acetylcholine 1 mg/kg): 0.27 ± 0.02 g | Bladder volume, proportion for value before administration (%) ([4]; Compound A 0.003 mg/kg): 21.07 ± 4.65% | Maximum urine flow rate, proportion for value before administration (%) ([4]; Compound A 0.003 mg/kg): −34.88 ± 8.22% | Urination efficiency, proportion for value before administration (%) ([4]; Compound A 0.003 mg/kg): −61.67 ± 7.22% | Bladder volume, proportion for value before administration (%) ([4]; Compound A 0.01 mg/kg): 24.73 ± 7.05% | Maximum urine flow rate, proportion for value before administration (%) ([4]; Compound A 0.01 mg/kg): −9.04 ± 5.94 % | Urination efficiency, proportion for value before administration (%) ([4]; Compound A 0.01 mg/kg): −30.23 ± 10.48 % | action on bladder volume, maximum urine flow rate and urination efficiency ([4]; oxybutynin 1 mg/kg, compound A 0.003, 0.01 mg/kg with oxybutynin): acted antagonistically against the lowering of the maximum urine flow rate and urination efficiency but did not influence the increase of bladder volume

CNC(=O)Oc1ccc2c(c1)[C@]1(C)CCN(C)[C@@H]1N2C [Physostigmine]
IC50 (Butyrylcholine esterase; Literature 4, read-out: Butyrylcholine esterase inhibitory activity (IC50)): 16 nM | IC50 (Butyrylcholine esterase; Literature 6, read-out: Butyrylcholine esterase inhibitory activity (IC50)): 15 nM
